Tests used:
PI3K-delta = target: T1, PI3K-delta (Homo sapiens, UniProt O00329); experiment: HTRF PI3K biochemical assay, delta isoform; conditions: form screened (neutral or TFA salt) given, read-out: PI3Kdelta IC50
T1 construct: purchased Upstate; Millipore 14-604

PI3K-alpha = target: T2, PI3K-alpha (Homo sapiens, UniProt P42336); experiment: HTRF PI3K biochemical assay, alpha isoform; conditions: ratio PI3K-alpha IC50 value / PI3K-delta IC50 value
T2 construct: purchased Upstate; Millipore 14-602
T2 sequence (P42336 whole entry, canonical isoform): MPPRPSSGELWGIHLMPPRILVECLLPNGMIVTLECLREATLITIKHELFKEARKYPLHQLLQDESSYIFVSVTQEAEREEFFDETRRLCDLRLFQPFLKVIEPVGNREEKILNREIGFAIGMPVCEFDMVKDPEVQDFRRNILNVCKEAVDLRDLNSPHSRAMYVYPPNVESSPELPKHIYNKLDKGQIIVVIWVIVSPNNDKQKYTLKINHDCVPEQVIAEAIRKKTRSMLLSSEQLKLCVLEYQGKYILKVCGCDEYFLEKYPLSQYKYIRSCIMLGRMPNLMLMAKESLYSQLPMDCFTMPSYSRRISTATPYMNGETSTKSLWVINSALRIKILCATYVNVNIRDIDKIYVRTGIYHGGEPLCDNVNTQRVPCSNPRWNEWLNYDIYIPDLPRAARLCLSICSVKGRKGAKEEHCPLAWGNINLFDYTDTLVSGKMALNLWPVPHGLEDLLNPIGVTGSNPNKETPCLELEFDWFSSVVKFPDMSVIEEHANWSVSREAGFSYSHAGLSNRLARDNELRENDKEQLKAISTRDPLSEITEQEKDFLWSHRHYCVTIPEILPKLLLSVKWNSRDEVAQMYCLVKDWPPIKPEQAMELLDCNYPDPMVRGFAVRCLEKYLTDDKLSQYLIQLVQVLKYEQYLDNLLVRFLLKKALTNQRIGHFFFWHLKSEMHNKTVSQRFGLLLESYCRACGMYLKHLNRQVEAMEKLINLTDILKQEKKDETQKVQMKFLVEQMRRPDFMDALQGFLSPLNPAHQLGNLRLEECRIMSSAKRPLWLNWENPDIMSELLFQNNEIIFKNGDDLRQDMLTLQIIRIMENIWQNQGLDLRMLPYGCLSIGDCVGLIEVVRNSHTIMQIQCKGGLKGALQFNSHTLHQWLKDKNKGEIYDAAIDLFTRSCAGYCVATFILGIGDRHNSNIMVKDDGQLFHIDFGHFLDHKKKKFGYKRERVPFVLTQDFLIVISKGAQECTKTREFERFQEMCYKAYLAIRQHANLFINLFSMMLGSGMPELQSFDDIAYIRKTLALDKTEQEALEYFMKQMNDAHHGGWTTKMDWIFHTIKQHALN
T2 sequence (P27986 whole entry partner, canonical isoform): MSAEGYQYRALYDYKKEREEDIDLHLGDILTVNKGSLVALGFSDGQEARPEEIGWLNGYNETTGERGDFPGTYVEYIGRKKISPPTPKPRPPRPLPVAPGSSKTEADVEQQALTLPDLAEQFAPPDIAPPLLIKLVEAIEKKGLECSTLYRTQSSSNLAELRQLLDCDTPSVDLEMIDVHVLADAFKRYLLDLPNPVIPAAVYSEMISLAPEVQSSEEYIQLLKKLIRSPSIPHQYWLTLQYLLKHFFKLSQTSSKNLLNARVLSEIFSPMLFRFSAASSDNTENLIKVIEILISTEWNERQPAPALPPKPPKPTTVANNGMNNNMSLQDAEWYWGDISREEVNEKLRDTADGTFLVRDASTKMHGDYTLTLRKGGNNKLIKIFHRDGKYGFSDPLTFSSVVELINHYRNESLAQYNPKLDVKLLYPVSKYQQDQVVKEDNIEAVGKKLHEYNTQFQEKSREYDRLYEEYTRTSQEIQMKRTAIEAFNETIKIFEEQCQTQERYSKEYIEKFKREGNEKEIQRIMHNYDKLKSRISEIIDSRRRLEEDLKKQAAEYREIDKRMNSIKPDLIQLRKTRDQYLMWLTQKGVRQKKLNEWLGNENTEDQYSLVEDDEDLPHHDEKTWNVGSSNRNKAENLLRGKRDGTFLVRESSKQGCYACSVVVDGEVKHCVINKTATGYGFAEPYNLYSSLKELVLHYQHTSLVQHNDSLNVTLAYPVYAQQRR
Text: The PI3-Kinase biochemical assays were developed to measure the intrinsic potency and compound dependent inhibition of the alpha, beta, delta, and gamma PI3K isoform enzymes. This assay was developed and further optimized from a kit produced by Upstate (Millipore catalog #33-047) and has been configured for HTS and SAR screening. Briefly, this procedure exploits the exquisite specificity and high affinity binding of enzyme reaction substrate phosphatidyl(3,4,5)triphosphate (PIP3) to the GRP1 pleckstrin homology (PH) domain to generate the signal. In the absence of PIP3, an HTRF (Homogeneous Time-Resolved Fluorescence energy transfer) complex is formed consisting of europium (Eu)-labeled anti-GST, GSTtagged GRP1-PH domain, biotin-PIP3 and streptavidin conjugated APC. The native PIP3 produced by PI3-Kinase activity disrupts in a competitive manner the biotin-PIP3 from the PH domain, resulting in the loss of energy transfer (HTRF complex) and a decrease in the signal. The format of this assay is the same for all 4 isoforms of PI3K; the differences lie in the concentration of enzyme used to achieve robust assay window. The alpha, beta, and delta assays are run at 0.5, 1, and 0.3 nM enzymes and the gamma assay is run at 5 nM enzyme. The ATP concentration is 100 uM in the alpha, beta, and delta assays and 50 uM ATP in the gamma assay. All reactions are run at 5 uM PIP2.
Compounds are serially diluted (3-fold in 100% DMSO) across a 384-well polypropylene source plated from column 3 to column 12 and column 13 to column 22, to yield 10 concentration dose response for each test compound. Columns 1, 2, 23 and 24 contain either only DMSO or pharmacological known control inhibitor.
The PI3-Kinase biochemical assay was optimized using the HTRF kit provided by Upstate (Millipore). The assay kit contains six reagents: 1) 4× Reaction Buffer; 2) native PIP2 (substrate); 3) Stop (EDTA); 4) Detection Mix A (Streptavidin-APC); 5) Detection Mix B (Eu-labeled Anti-GST plus GST-tagged PH-domain); 6) Detection Mix C.
PI3Kinase Reaction Buffer is prepared by dilution the stock 1:4 with de-ionized water. […] Enzyme addition and compound pre-incubation are initiated by the addition of 1.25 ul of PI3K (at twice its final concentration) in the 1× reaction buffer to all wells using a BioRaptor. Plates are incubated at room temperature for 15 minutes. Reactions are initiated by addition of 1.25 ul of 2× substrate solution (PIP2 and ATP in 1× reaction buffer) using BioRaptor. Plates are incubated in humidified chamber at room temperature for one hour. Reactions are quenched by addition of 0.625 uL of stop solution to all wells using the BioRaptor. The quenched reactions are then processed to detect product formation by adding 0.625 uL of Detection Solution to all wells using the BioRaptor (Detection mix C, Detection Mix A, and Detection Mix B combined together in an 18:1:1 ratio prepared 2 hours prior to use).
The loss of the HTRF signal is due to the displacement of biotinylated-PIP3 from the PH domain by the PI3K-dependent conversion of PIP2 to PIP3. This loss of signal is nonlinear with respect to both increasing product and time. This non-linear detection will impact accuracy of IC50 calculations; therefore, there is a need for a correction factor to obtain more accurate IC50 values. This correction is derived from a PIP3 standard curve run in a separate assay plate. All data were calculated using the ratio of acceptor (APC) to donor (Europium) fluorescence in each well of the assay plate. […] An IC50 was then calculated fitting the % inhibition data to the equation: % inhibition=min+(Max−min)/1+([inhibitor]/IC50)^n) where min is the % inhibition with inhibitor, max is the signal in DMSO control, and n is the Hill slope.
The determination of relative selectivity for a given compound is defined as the relative ratio of the (PI3K-alphalC50 value/PI3K-delta IC50 value).

T1 sequence (O00329 whole entry, canonical isoform): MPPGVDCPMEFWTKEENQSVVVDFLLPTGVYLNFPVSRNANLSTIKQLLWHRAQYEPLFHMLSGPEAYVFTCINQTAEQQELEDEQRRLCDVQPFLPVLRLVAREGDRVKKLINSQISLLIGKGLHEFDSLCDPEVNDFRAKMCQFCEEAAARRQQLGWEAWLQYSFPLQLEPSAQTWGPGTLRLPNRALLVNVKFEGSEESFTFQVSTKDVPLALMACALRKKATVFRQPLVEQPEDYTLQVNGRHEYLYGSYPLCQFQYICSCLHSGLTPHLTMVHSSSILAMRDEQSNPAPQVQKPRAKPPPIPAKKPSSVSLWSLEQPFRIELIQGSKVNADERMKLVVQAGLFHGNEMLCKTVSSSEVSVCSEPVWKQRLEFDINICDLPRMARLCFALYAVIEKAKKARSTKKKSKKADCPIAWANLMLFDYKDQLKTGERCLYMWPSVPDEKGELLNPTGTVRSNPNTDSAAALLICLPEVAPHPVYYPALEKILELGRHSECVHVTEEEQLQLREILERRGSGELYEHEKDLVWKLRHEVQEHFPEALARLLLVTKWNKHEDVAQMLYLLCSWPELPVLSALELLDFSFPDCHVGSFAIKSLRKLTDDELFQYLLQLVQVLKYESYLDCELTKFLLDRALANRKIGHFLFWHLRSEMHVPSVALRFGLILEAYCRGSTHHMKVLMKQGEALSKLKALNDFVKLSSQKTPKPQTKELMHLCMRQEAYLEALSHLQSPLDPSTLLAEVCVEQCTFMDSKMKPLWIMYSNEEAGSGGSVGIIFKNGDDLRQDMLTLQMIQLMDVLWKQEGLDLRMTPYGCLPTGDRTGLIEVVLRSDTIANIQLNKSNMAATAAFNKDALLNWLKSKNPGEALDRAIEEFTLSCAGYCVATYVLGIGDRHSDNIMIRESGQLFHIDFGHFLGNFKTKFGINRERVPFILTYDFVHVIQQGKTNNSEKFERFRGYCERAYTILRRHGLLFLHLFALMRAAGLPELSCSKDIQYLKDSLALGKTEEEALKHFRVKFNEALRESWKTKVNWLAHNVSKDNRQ
T1 sequence (P27986 whole entry partner, canonical isoform): as the sequence (P27986 whole entry partner, canonical isoform) above

SMILES | IC50 (PI3K-delta) | Selectivity versus PI3Kalpha (PI3K-alpha)
CCn1c(-c2cnc(C)nc2)nc2c(N[C@H]3CCN(C(=O)C4CC(=O)N(C(C)C)C4)C3)ncnc21 (mixture of isomers) [Compound 2-81, (R and S)-4-{[(3S)-3-{[9-ethyl-8-(2-methylpyrimidin-5-yl)-9H-purin-6-yl]amino}pyrrolidin-1-yl]carbonyl}-1-(1-methylethyl)pyrrolidin-2-one] | 13 nM | >10
CCn1c(-c2cnc(C)nc2)nc2c(N[C@H]3CCN(C(=O)[C@H]4C[C@@H]4C)C3)ncnc21 [Compound 2-93, 9-ethyl-N-[(3S)-1-{[(1S,2S)-2-methylcyclopropyl]carbonyl}pyrrolidin-3-yl]-8-(2-methylpyrimidin-5-yl)-9H-purin-6-amine] | 11.2 nM | >10
CCC(=O)N1CC[C@H](Nc2ncnc3c2nc(-c2ccc(OC)c(C)c2)n3C)C1 [Compound 3-32, 8-(4-methoxy-3-methylphenyl)-9-methyl-N-[(3S)-1-propanoylpyrrolidin-3-yl]-9H-purin-6-amine] | 1.9 nM | >10
CCn1c(-c2cnc(C)nc2)nc2c(N[C@H]3CCN(C(=O)[C@@H]4CCOC4)C3)ncnc21 [Compound 2-40, 9-ethyl-8-(2-methylpyrimidin-5-yl)-N-{(3S)-1-[(3R)-tetrahydrofuran-3-ylcarbonyl]pyrrolidin-3-yl}-9H-purin-6-amine] | 1.6 nM | >10
CCn1c(-c2cnc(C)nc2)nc2c(NC3CN(C(=O)c4cocn4)CC3C)ncnc21 (single isomer, unassigned) [Compound 2-89, 9-ethyl-N-[-{(3S,4R or 3R,4S)-4-methyl-1-(1,3-oxazol-4-ylcarbonyl)pyrrolidin-3-yl]-8-(2-methylpyrimidin-5-yl)-9H-purin-6-amine] | 3.9 nM | >10
CCn1c(-c2cnc(C)nc2)nc2c(N[C@H]3CCN(C(=O)c4nnsc4C)C3)ncnc21 [Compound 2-71, 9-ethyl-8-(2-methylpyrimidin-5-yl)-N-{(3S)-1-[(5-methyl-1,2,3-thiadiazol-4-yl)carbonyl]pyrrolidin-3-yl}-9H-purin-6-amine] | 4.2 nM | >10
CCn1c(-c2cnc(C)nc2)nc2c(N[C@H]3CCN(C(=O)C4CCCO4)C3)ncnc21 (single isomer, unassigned) [Compound 2-32, 9-ethyl-8-(2-methylpyrimidin-5-yl)-N-[(3S)-1-((S or R)-tetrahydrofuran-2-ylcarbonyl)pyrrolidin-3-yl]-9H-purin-6-amine] | 3.1 nM | >10
CCn1c(-c2cnc(C)nc2)nc2c(N[C@H]3CCN(C(=O)C4CC4CF)C3)ncnc21 (mixture of isomers) [Compound 2-37, ((S)-3-((9-ethyl-8-(2-methylpyrimidin-5-yl)-9H-purin-6-yl)amino)pyrrolidin-1-yl)((1S,2S and 1R,2R)-2-(fluoromethyl)cyclopropyl) methanone] | < 1 nM | >10
CCn1c(-c2cnc(C)nc2)nc2c(N[C@H]3CCN(C(=O)[C@H]4CCCN4C)C3)ncnc21 [Compound 2-42, 9-ethyl-N-[(3S)-1-(1-methyl-D-prolyl)pyrrolidin-3-yl]-8-(2-methylpyrimidin-5-yl)-9H-purin-6-amine] | 29 nM | >10
CCC(=O)N1CC[C@H](N(C)c2ncnc3c2nc(-c2cnc(OC)c(C)c2)n3C)C1 [Compound 2-13, (S)-1-(3-((8-(6-methoxy-5-methylpyridin-3-yl)-9-methyl-9H-purin-6-yl)(methyl)amino)pyrrolidin-1-yl)propan-1-one] | 17 nM | >10
CCC(=O)N1CC[C@H](Nc2ncnc3c2nc(-c2cnc4[nH]ccc4c2)n3C)C1 [Compound 3-2, (S)-1-(3-((9-methyl-8-(1H-pyrrolo[2,3-b]pyridin-5-yl)-9H-purin-6-yl)amino)pyrrolidin-1-yl)propan-1-one] | < 1 nM | >10
CCn1c(-c2cnc(C)nc2)nc2c(N[C@H]3CCN(C(=O)Cc4ccccc4)C3)ncnc21 [Compound 2-36, 9-ethyl-8-(2-methylpyrimidin-5-yl)-N-[(3S)-1-(phenylacetyl)pyrrolidin-3-yl]-9H-purin-6-amine] | 17 nM | >10
CCC(=O)N1CC[C@H](Nc2ncnc3c2nc(-c2ccc(Cl)nc2)n3C)C1 [Compound 3-14, 8-(6-chloropyridin-3-yl)-9-methyl-N-[(3S)-1-propanoylpyrrolidin-3-yl]-9H-purin-6-amine] | 2.1 nM | >10
CCn1ncc(-c2nc3c(N[C@H]4CCN(C(=O)OC(C)(C)C)C4)ncnc3n2C)c1C [Compound 1-2, tert-butyl (3S)-3-{[8-(1-ethyl-5-methyl-1H-pyrazol-4-yl)-9-methyl-9H-purin-6-yl]amino}pyrrolidine-1-carboxylate] | 1.8 nM | >10
CCn1c(-c2cnc(C)nc2)nc2c(N[C@H]3CCN(C(=O)C4(C)CC4)C3)ncnc21 [Compound 2-47, 9-ethyl-N-{(3S)-1-[(1-methylcyclopropyl)carbonyl]pyrrolidin-3-yl}-8-(2-methylpyrimidin-5-yl)-9H-purin-6-amine] | 17 nM | >10
CCn1c(-c2cnc(C)nc2)nc2c(N[C@H]3CCN(C(=O)[C@H]4CC[C@H](O)CC4)C3)ncnc21 [Compound 2-99, trans-4-{[(3S)-3-{[9-ethyl-8-(2-methylpyrimidin-5-yl)-9H-purin-6-yl]amino}pyrrolidin-1-yl]carbonyl}cyclohexanol] | 2.8 nM | >10

More lines, now with the values ahead:

IC50 (PI3K-delta) | Selectivity versus PI3Kalpha (PI3K-alpha) | SMILES
9.2 nM | >10 | CCn1c(-c2cnc(C)nc2)nc2c(N[C@H]3CCN(C(=O)OC)C3)ncnc21 [Compound 13-2, methyl (3S)-3-{[9-ethyl-8-(2-methylpyrimidin-5-yl)-9H-purin-6-yl]amino}pyrrolidine-l-carboxylate]
5.1 nM | >10 | CCn1c(C(=O)NCC(F)(F)F)nc2c(N[C@H]3CCN(C(=O)N4CC(OC)C4)C3)ncnc21 [Compound 12-27, 9-ethyl-6-({(3S)-1-[(3-methoxyazetidin-1-yl)carbonyl]pyrrolidin-3-yl}amino)-N-(2,2,2-trifluoroethyl)-9H-purine-8-carboxamide]
7.6 nM | >10 | CCn1c(C(F)F)nc2c(N[C@H]3CCN(C(=O)C4CCC4)C3)ncnc21 [Compound 7-15, N-[(3S)-1-(cyclobutylcarbonyl)pyrrolidin-3-yl]-8-(difluoromethyl)-9-ethyl-9H-purin-6-amine]
500 nM | >10 | CCC(=O)N1CC[C@H](Nc2ncnc3c2nc(C)n3CC)C1 [Compound 7-4, 9-ethyl-8-methyl-N-[(3S)-1-propanoylpyrrolidin-3-yl]-9H-purin-6-amine]
11 nM | >10 | CCn1c(-c2cnc(C)nc2)nc2c(N[C@H]3CC[C@@H](C(=O)N4CCC4)C3)ncnc21 [Compound 5-6, N-[(1S,3R)-3-(azetidin-1-ylcarbonyl)cyclopentyl]-9-ethyl-8-(2-methylpyrimidin-5-yl)-9H-purin-6-amine]
380 nM | >10 | CCn1c(C(F)F)nc2c(N[C@H]3CCN(C(=O)[C@H]4CCCN4C)C3)ncnc21 [Compound 7-19, 8-(difluoromethyl)-9-ethyl-N-[(3S)-1-(1-methyl-D-prolyl)pyrrolidin-3-yl]-9H-purin-6-amine]
6.4 nM | >10 | CCn1c(-c2cnc(C)nc2)nc2c(N[C@H]3CCN(C(=O)NCC4CC4)C3)ncnc21 [Compound 12-7, (3S)-N-(cyclopropylmethyl)-3-{[9-ethyl-8-(2-methylpyrimidin-5-yl)-9H-purin-6-yl]amino}pyrrolidine-1-carboxamide]
2 nM | >10 | CCn1c(-c2cnc(C)nc2)nc2c(N[C@H]3CCN(C(=O)OCc4ccccc4)C3)ncnc21 [Compound 13-10, benzyl (3S)-3-{[9-ethyl-8-(2-methylpyrimidin-5-yl)-9H-purin-6-yl]amino}pyrrolidine-1-carboxylate]
13 nM | >10 | CCn1c(-c2cnc(C)nc2)nc2c(N[C@H]3CCN(C(=O)NC(C)C)C3)ncnc21 [Compound 12-19, (3S)-3-{[9-ethyl-8-(2-methylpyrimidin-5-yl)-9H-purin-6-yl]amino}-N-(1-methylethyl)pyrrolidine-l-carboxamide]
23 nM | >10 | CCn1c(C(=O)Nc2ccccn2)nc2c(N[C@H]3CCN(C(=O)C4CC4)C3)ncnc21 [Compound 6-20, 6-{[(3S)-1-(cyclopropylcarbonyl)pyrrolidin-3-yl]amino}-9-ethyl-N-pyridin-2-yl-9H-purine-8-carboxamide]
800 nM | >10 | CCn1c(C(=O)N(C)C)nc2c(N[C@H]3CCN(C(=O)C4CC4)C3)ncnc21 [Compound 6-5, 6-{[(3S)-1-(cyclopropylcarbonyl)pyrrolidin-3-yl]amino}-9-ethyl-N,N-dimethyl-9H-purine-8-carboxamide]
14 nM | >10 | CCn1c(C(=O)NCCC(F)(F)F)nc2c(N[C@H]3CCN(C(=O)C4CC4)C3)ncnc21 [Compound 6-17, 6-{[(3S)-1-(cyclopropylcarbonyl)pyrrolidin-3-yl]amino}-9-ethyl-N-(3,3,3-trifluoropropyl)-9H-purine-8-carboxamide]
22 nM | >10 | CCn1c(C(F)F)nc2c(N[C@H]3CCN(C(=O)C4CC4)C3)ncnc21 [Compound 7-14, N-[(3S)-1-(cyclopropylcarbonyl)pyrrolidin-3-yl]-8-(difluoromethyl)-9-ethyl-9H-purin-6-amine]

— patent publication US9938281B2 (Merck Sharp & Dohme Corp., priority 2012, dated 2018)
